Assays:
[1] = Cytotoxicity against human HK-2 cells assessed as inhibition of cell growth incubated for 48 hrs by MTT assay; type: toxicity, cell-based
U2OS = assay: Cytotoxicity against alternative lengthening of telomere-positive human U2OS cells assessed as inhibition of cell growth incubated for 48 hrs by MTT assay; type: functional, cell-based
A549 = assay: Cytotoxicity against telomerase-positive human A549 cells assessed as inhibition of cell growth incubated for 48 hrs by MTT assay; type: functional, cell-based; conditions: A549, 48 h
MDA-MB-231 = assay: Cytotoxicity against telomerase-positive human MDA-MB-231 cells assessed as inhibition of cell growth incubated for 48 hrs by MTT assay; type: functional, cell-based; conditions: MDA-MB-231, 48 h
PC-3 = assay: Cytotoxicity against telomerase-positive human PC-3 cells assessed as inhibition of cell growth incubated for 48 hrs by MTT assay; type: functional, cell-based; conditions: PC-3, 48 h
[2] = Cytotoxicity against HUVEC cells assessed as inhibition of cell growth incubated for 48 hrs by MTT assay; type: toxicity, cell-based; conditions: human
HeLa = assay: Cytotoxicity against telomerase-positive human HeLa cells assessed as inhibition of cell growth incubated for 48 hrs by MTT assay; type: functional, cell-based
HepG2 = assay: Cytotoxicity against telomerase-positive human HepG2 cells assessed as inhibition of cell growth incubated for 48 hrs by MTT assay; type: functional, cell-based; conditions: HepG2, 48 h

C[n+]1c(/C=C/c2c[nH]c3ccccc23)cc(/C=C2\Sc3ccccc3N2CCCN2CCCCC2)c2ccccc21
IC50 at 48 h [1]: 5.4 µM
IC50 (U2OS): 5.1 µM
IC50 (A549): 1.7 µM
IC50 (MDA-MB-231): 3.1 µM
IC50 (PC-3): 3.8 µM
IC50 at 48 h [2]: 11.9 µM
IC50 (HeLa): 1.8 µM
IC50 (HepG2): 4.5 µM

C[n+]1c(/C=C/c2c[nH]c3ccccc23)cc(/C=C2\Sc3ccccc3N2CCCN2CCOCC2)c2ccccc21
IC50 at 48 h [1]: 5.8 µM
IC50 (U2OS): 7.8 µM
IC50 (A549): 2.1 µM
IC50 (MDA-MB-231): 2.9 µM
IC50 (PC-3): 4.7 µM
IC50 at 48 h [2]: 16.5 µM
IC50 (HeLa): 2.3 µM
IC50 (HepG2): 5.8 µM

CC1CCN(CCCN2/C(=C/c3cc(/C=C/c4c[nH]c5ccccc45)[n+](C)c4ccccc34)Sc3ccccc32)CC1
IC50 at 48 h [1]: 5.5 µM
IC50 (U2OS): 5.3 µM
IC50 (A549): 1.7 µM
IC50 (MDA-MB-231): 1.9 µM
IC50 (PC-3): 2.4 µM
IC50 at 48 h [2]: 6 µM
IC50 (HeLa): 1.9 µM
IC50 (HepG2): 3.2 µM

C[n+]1c(/C=C/c2cc3ccccc3[nH]2)cc(/C=C2\Sc3ccccc3N2CCCN2CCCCC2)c2ccccc21
IC50 at 48 h [1]: 7.9 µM
IC50 (U2OS): 5 µM
IC50 (A549): 3.6 µM
IC50 (MDA-MB-231): 3.3 µM
IC50 (PC-3): 3.3 µM
IC50 at 48 h [2]: 9.4 µM
IC50 (HeLa): 3 µM
IC50 (HepG2): 4.5 µM

CC(C)(C)OO [TERT-BUTYL HYDROPEROXIDE]
IC50 (MDA-MB-231): 549 µM

C[n+]1c(/C=C/c2cc3ccccc3[nH]2)cc(/C=C2\Sc3ccccc3N2CCCN2CCOCC2)c2ccccc21
IC50 at 48 h [1]: 9.5 µM
IC50 (U2OS): 14.8 µM
IC50 (A549): 5 µM
IC50 (MDA-MB-231): 6.4 µM
IC50 (PC-3): 4.8 µM
IC50 at 48 h [2]: 16.6 µM
IC50 (HeLa): 4.1 µM
IC50 (HepG2): 5.2 µM

CC1CCN(CCCN2/C(=C/c3cc(/C=C/c4cc5ccccc5[nH]4)[n+](C)c4ccccc34)Sc3ccccc32)CC1
IC50 at 48 h [1]: 6.3 µM
IC50 (U2OS): 6.2 µM
IC50 (A549): 4.3 µM
IC50 (MDA-MB-231): 2.6 µM
IC50 (PC-3): 2.5 µM
IC50 at 48 h [2]: 8 µM
IC50 (HeLa): 3.1 µM
IC50 (HepG2): 5 µM

C[n+]1c(/C=C/c2cc3ccccc3[nH]2)cc(/C=C2\Sc3ccccc3N2CCCN2CCC(C(F)(F)F)CC2)c2ccccc21
IC50 at 48 h [1]: 14.7 µM
IC50 (U2OS): 9.8 µM
IC50 (A549): 6.6 µM
IC50 (MDA-MB-231): 5.3 µM
IC50 (PC-3): 3.9 µM
IC50 at 48 h [2]: 12 µM
IC50 (HeLa): 5.5 µM
IC50 (HepG2): 4.7 µM

CCN(CC)CCCN1/C(=C/c2cc(/C=C/c3c[nH]c4ccccc34)[n+](C)c3ccccc23)Sc2ccccc21
IC50 at 48 h [1]: 4.6 µM
IC50 (U2OS): 9.4 µM
IC50 (A549): 2.3 µM
IC50 (MDA-MB-231): 2.1 µM
IC50 (PC-3): 5.4 µM
IC50 at 48 h [2]: 14.5 µM
IC50 (HeLa): 1.9 µM
IC50 (HepG2): 4.7 µM

CCN(CC)CCCN1/C(=C/c2cc(/C=C/c3cc4ccccc4[nH]3)[n+](C)c3ccccc23)Sc2ccccc21
IC50 at 48 h [1]: 9.5 µM
IC50 (U2OS): 10.3 µM
IC50 (A549): 4.7 µM
IC50 (MDA-MB-231): 5.6 µM
IC50 (PC-3): 3.1 µM
IC50 at 48 h [2]: 11.9 µM
IC50 (HeLa): 3.3 µM
IC50 (HepG2): 5.4 µM

Reference: ChEMBL document CHEMBL5550185, “Targeting hTERT Promoter G-Quadruplex DNA Structures with Small-Molecule Ligand to Downregulate hTERT Expression for Triple-Negative Breast Cancer Therapy” (J Med Chem, 2024)
